Measurements from ChEMBL document CHEMBL6109067, “Isolation, synthesis and structure-activity relationships of gallotannin derivatives as cathepsin C inhibitor” (Bioorg Med Chem Lett, 2025).

Key:
Dipeptidyl peptidase 1 = Dipeptidyl peptidase 1 (Homo sapiens, UniProt P53634); assay: Inhibition of Cathepsin C (unknown origin)
Procathepsin L = Procathepsin L (Homo sapiens, UniProt P07711); assay: Inhibition of Cathepsin L (unknown origin)
Cathepsin S = Cathepsin S (Homo sapiens, UniProt P25774); assay: Inhibition of Cathepsin S (unknown origin)
Cathepsin K = target: T1, Cathepsin K (Homo sapiens, UniProt P43235); assay: Inhibition of Cathepsin K (unknown origin)
T1 sequence (P43235 whole entry): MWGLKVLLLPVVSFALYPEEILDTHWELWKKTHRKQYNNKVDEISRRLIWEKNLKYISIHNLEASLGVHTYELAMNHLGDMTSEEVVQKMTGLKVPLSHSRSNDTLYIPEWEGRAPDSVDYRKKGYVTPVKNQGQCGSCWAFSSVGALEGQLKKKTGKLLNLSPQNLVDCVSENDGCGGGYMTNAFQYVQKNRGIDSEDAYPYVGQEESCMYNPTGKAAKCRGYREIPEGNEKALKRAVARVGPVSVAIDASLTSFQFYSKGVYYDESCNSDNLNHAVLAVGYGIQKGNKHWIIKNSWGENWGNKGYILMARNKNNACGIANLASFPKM

Dipeptidyl peptidase 1, sequence (P53634 25-134 limits assumed): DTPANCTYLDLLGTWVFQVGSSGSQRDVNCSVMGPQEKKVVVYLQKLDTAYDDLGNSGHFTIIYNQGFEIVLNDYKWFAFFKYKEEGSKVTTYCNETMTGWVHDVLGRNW
Dipeptidyl peptidase 1, sequence (P53634 231-394 limits assumed): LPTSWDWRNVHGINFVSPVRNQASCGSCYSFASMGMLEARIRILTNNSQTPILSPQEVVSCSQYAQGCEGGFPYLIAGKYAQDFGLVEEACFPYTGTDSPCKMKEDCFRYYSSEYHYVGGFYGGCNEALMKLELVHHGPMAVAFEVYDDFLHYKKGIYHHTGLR
Dipeptidyl peptidase 1, sequence (P53634 395-463 limits assumed): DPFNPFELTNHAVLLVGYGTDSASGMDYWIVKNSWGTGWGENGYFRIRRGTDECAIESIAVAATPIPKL
Cathepsin S, sequence (P25774 whole entry): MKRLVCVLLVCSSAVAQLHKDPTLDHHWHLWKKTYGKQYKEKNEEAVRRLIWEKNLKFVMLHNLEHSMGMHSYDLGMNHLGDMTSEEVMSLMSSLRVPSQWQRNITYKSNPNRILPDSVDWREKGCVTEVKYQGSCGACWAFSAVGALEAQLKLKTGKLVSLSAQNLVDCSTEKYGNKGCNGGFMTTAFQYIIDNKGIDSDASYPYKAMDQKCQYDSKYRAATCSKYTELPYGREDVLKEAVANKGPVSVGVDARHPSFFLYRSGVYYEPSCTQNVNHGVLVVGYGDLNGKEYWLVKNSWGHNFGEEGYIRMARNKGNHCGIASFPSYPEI
Procathepsin L, sequence (P07711 whole entry): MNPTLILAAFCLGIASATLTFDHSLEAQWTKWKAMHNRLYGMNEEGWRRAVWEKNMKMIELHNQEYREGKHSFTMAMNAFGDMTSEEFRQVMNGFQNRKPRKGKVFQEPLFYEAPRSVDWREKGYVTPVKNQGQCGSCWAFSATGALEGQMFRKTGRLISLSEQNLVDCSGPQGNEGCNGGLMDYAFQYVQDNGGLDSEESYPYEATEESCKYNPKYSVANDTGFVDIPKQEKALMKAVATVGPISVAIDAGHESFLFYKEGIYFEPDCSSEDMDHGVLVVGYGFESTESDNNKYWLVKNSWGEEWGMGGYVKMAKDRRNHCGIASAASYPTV

| IC50 (Procathepsin L) | IC50 (Cathepsin S) | IC50 (Cathepsin K) | pIC50 (Dipeptidyl peptidase 1) | Compound | IC50 (Dipeptidyl peptidase 1) |
| --- | --- | --- | --- | --- | --- |
|  |  |  |  | O=C(OC[C@H]1O[C@@H](OC(=O)c2cc(O)c(O)c(O)c2)[C@H](OC(=O)c2cc(O)c(O)c(O)c2)[C@@H](OC(=O)c2cc(O)c(O)c(O)c2)[C@H]1OC(=O)c1cc(O)c(O)c(O)c1)c1cc(O)c(O)c(O)c1 | 0.735 µM |
|  |  |  |  | O=C(OC[C@H]1O[C@H](OC(=O)c2cc(O)c(O)c(O)c2)[C@H](OC(=O)c2cc(O)c(O)c(O)c2)[C@@H](OC(=O)c2cc(O)c(O)c(O)c2)[C@H]1OC(=O)c1cc(O)c(O)c(O)c1)c1cc(O)c(O)c(O)c1 | 2.52 µM |
| 7.23 µM | > 50 µM | > 50 µM |  | O=C(OC[C@H]1O[C@@H](OC(=O)c2cc(O)c(O)c(O)c2)[C@H](OC(=O)c2cc(O)c(O)c(O)c2)[C@@H](OC(=O)c2cc(O)c(O)c(O)c2)[C@@H]1F)c1cc(O)c(O)c(O)c1 |  |
|  |  |  | < 5 | O=C(N[C@H]1[C@@H](OC(=O)c2cc(O)c(O)c(O)c2)O[C@H](COC(=O)c2cc(O)c(O)c(O)c2)[C@@H](O)[C@@H]1OC(=O)c1cc(O)c(O)c(O)c1)c1cc(O)c(O)c(O)c1 | > 10 µM |
|  |  |  | < 5 | COc1cc(C(=O)O[C@@H]2O[C@H](CO)[C@@H](O)[C@H](OC(=O)c3cc(OC)c(OC)c(OC)c3)[C@H]2OC(=O)c2cc(OC)c(OC)c(OC)c2)cc(OC)c1OC | > 10 µM |
| 0.00749 µM | 0.00358 µM | 0.00117 µM |  | CC(C)C[C@H](NC(=O)[C@H]1O[C@@H]1C(=O)O)C(=O)NCCCCN=C(N)N [E-64] | 4.45 µM |
|  |  |  |  | O=C(OC[C@H]1O[C@H](OC(=O)c2cc(O)c(O)c(O)c2)[C@H](OC(=O)c2cc(O)c(O)c(O)c2)[C@@H](OC(=O)c2cc(O)c(O)c(O)c2)[C@@H]1OC(=O)c1cc(O)c(O)c(O)c1)c1cc(O)c(O)c(O)c1 | 1.99 µM |
|  |  |  |  | O=C(OC[C@H]1O[C@@H](OC(=O)c2cc(O)c(O)c(O)c2)[C@H](OC(=O)c2cc(O)c(O)c(O)c2)[C@@H](OC(=O)c2cc(O)c(O)c(O)c2)[C@@H]1OC(=O)c1cc(O)c(O)c(O)c1)c1cc(O)c(O)c(O)c1 [PENTAGALLOYL GLUCOSE] | 0.695 µM |
| > 50 µM | > 50 µM | > 50 µM |  | O=C(OC[C@H]1O[C@@H](OC(=O)c2cc(O)c(O)c(O)c2)[C@H](OC(=O)c2cc(O)c(O)c(O)c2)[C@@H](OC(=O)c2cc(O)c(O)c(O)c2)[C@@H]1O)c1cc(O)c(O)c(O)c1 |  |
